In patent US11174226B2, “Azetidinimines as carbapenemases inhibitors” (priority 2015, dated 2021):

Assay: Stability tests of imipenem with increasing concentrations of tested molecules
Procedure: These tests were conducted by comparing UV absorbance slope measurements of impenem alone, and then imipenem with the concerned azetidinimines at given concentrations in the presence of the enzyme. It was thus possible to monitor the hydrolysis of imipenem. Lower the value of the slope, the higher is the percentage of inhibition of the enzyme.
Stability tests of imipenem with increasing concentrations of tested molecules of the present invention (T4#1, i.e. compound #1 of table 4; T4#7 i.e. compound #7 of table 4; T4#9 i.e. compound #9 of table 4; T4#2 i.e. compound #2 of table 4) were also conducted (Table 2).

COc1ccc(N2/C(=N/c3ccccc3)CC2c2ccc(Cl)cc2)cc1 (stereo not drawn) [T4#9, (E)-N-(4-(4-chlorophenyl)-1-(4-methoxyphenyl)azetidin-2-ylidene)aniline]
Slope (stability test of imipenem) (C 1 μM of tested molecule): 2 | Slope (stability test of imipenem) (C 10 μM of tested molecule): 38 | Slope (stability test of imipenem) (C 100 μM of tested molecule): 390

COc1ccc(N2/C(=N/c3ccccc3)CC2c2ccccc2)cc1 (stereo not drawn) [T4#1]
Slope (stability test of imipenem) (C 1 μM of tested molecule): 9 | Slope (stability test of imipenem) (C 10 μM of tested molecule): 50 | Slope (stability test of imipenem) (C 100 μM of tested molecule): 506
